Measured values: US6054484A, “Transparent aqueous solution of diclofenac sodium and medicinal compositions with the use of the same” (Tsumura & Co., priority 1996, dated 2000)

Key:
[1] = cited from earlier work
[2] = Solubility of drug substance in water, oil ingredients and fatty acid diethanolamide; assay type: physicochemical

Structure (SMILES)	solubility in water [1]	dissolution in coconut fatty acid diethanolamide ([2]; coconut fatty acid diethanolamide alone)	solubility in oil ingredients ([2]; in oil ingredients)	dissolution in liquid mixture of coconut fatty acid diethanolamide with water ([2]; liquid mixture with water)	solubility in water (in words) [1]
O=C(O)Cc1ccccc1Nc1c(Cl)cccc1Cl [diclofenac sodium]	about 1.5 wt. %	does not dissolve	low solubility	at a high concentration and stably	
COc1ccc2c(c1)c(CC(=O)O)c(C)n2C(=O)c1ccc(Cl)cc1 [indomethacin]					insoluble in water
